Tested on: rabbit platelet aggregation
Assay: Test for inhibition of rabbit platelet aggregation (ADP-induced, platelet-rich plasma, method of Born)
Type: cell-based, rabbit (New Zealand White-strain)
Settings: Oryctolagus cuniculus, ADP final concentration 5 μM, 37° C., 3 minutes preincubation, maximum aggregation within 5 minutes
Experimental: Test Example [Test for inhibition of rabbit platelet aggregation]
New Zealand White-strain rabbits (groups of four rabbits each weighing 2.5-4.0 to kg) were tested. Blood was collected from the common carotid artery of the rabbits under on ether anesthesic, and mixed with 3.2to % sodium citrate in volume ratio of 9:1. The blood was centrifuged at 1,100 rpm for 15 minutes to give a platelet-rich plasma (PRP) as a supernatant.
Blood platelet aggregation was determined according to the method of Born [Nature, Vol. 194, p. 927 (1962)]. To 275 to μl of PRP was added 1 μl of a solution of various concentrations of a test compound dissolved in ethanol; the mixture was stirred at 1,000 rpm at 37° C. for 3 minutes; then, in this state, 25 μl of an aggregation-inducing agent [adenosine diphosphate (ADP), final concentration: 5 μM] was added thereto to induce platelet aggregation; and by using an aggregometer, there was determined the maximum aggregation rate (the maximum change in light transmission within 5 minutes from the induction of platelet aggregation).
The aggregatian inhibition rate of the test compound was calculated from the maximum aggregation rate in the presence test compound relative to the maximum aggregation rate when ethanol was used instead of the solution of the test compound; the IC50 value of the test compound was determined from the concentration response curve.

SMILES | IC50 [nM]
CCCC[C@@H](C)C[C@H](O)C#C[C@H]1[C@H](O)CC(=O)[C@@H]1CCCCOCC(=O)O [Compound 2, (17R)-17,20-Dimethyl-13,14-didehydro-3-oxa-PGE1] | 0.66
CCCCC(C)[C@H](O)C#C[C@H]1[C@H](O)CC(=O)[C@@H]1CCCCSCC(=O)O (stereo partly drawn) [Control C, reference compound] | 911
COC(=O)COCCCC[C@H]1C(=O)C[C@@H](O)[C@@H]1C#C[C@@H](O)C[C@H](C)CCC=C(C)C [Compound 5, (17R)-20-Isopropylidene-17-methyl-13, 14-didehydro-3-oxa-PGE1 methyl ester] | 0.67
CCCC[C@@H](C)C[C@H](O)C#C[C@H]1[C@H](O)CC(=O)[C@@H]1CCCCOCC(=O)OC [Compound 1, (17R)-17,20-Dimethyl-13,14-didehydro-3-oxa-PGE1 methyl ester] | 0.6
COC(=O)CSCCCC[C@H]1C(=O)C[C@@H](O)[C@@H]1C#C[C@@H](O)C[C@@H](C)CCC=C(C)C [Compound 3, (17S)-20-Isopropylidene-17-methyl-13, 14-didehydro-3-thia-PGE1 methyl ester] | 0.39
COC(=O)COCCCC[C@H]1C(=O)C[C@@H](O)[C@@H]1C#C[C@@H](O)CC1CCCCC1 [Control B, reference compound] | 134
CC(C)=CCC[C@@H](C)C[C@H](O)C#C[C@H]1[C@H](O)CC(=O)[C@@H]1CCCCOCC(=O)O [Compound 6, (17R)-20-Isopropylidene-17-methyl-13, 14-didehydro-3-oxa-PGE1] | 1.27
CCCCC(C)(C)C(O)C#C[C@H]1[C@H](O)CC(=O)[C@@H]1CCCCOCC(=O)OC (stereo partly drawn) [Control D, reference compound] | 1520
CC(C)=CCC[C@H](C)C[C@H](O)C#C[C@H]1[C@H](O)CC(=O)[C@@H]1CCCCSCC(=O)O [Compound 4, (17S)-20-Isopropylidene-17-methyl-13,14-didehydro-3-thia-PGE1] | 0.26

From US5583158A, “Prostaglandin E1 analogues” (Taisho Pharmaceutical Co., Ltd., priority 1992, dated 1996)
